Laboratory results taken from PubChem BioAssay (NCI).
Values joined by “and” are separate entries in the source; they are usually repeats but may differ in a detail not shown here. Equal values may be shown once.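 Protocol summary: plate cells (96-well), add compound at 5 concentrations, incubate 48 h, interpolate endpoints linearly. The concentration for 50% growth inhibition is given as GI50. At the TGI there is no net growth.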

Columns and labels:
Assay in all cases: NCI-60 cell line screen, 48 h
[1] = test system: CAKI-1 renal
[2] = test system: HCT-15 colon
[3] = test system: OVCAR-4 ovarian
[4] = test system: RXF 393 renal
[5] = test system: SF-295 CNS
[6] = test system: SK-MEL-2 melanoma
[7] = test system: SK-MEL-28 melanoma
[8] = test system: SNB-19 CNS
[9] = test system: UACC-62 melanoma
[10] = test system: TK-10 renal

SMILES: O=C(O)/C=C/c1cnc[nH]1
- TGI [1]: > 500 µM
- GI50 [2]: 284 µM and > 500 µM
- TGI [2]: > 500 µM
- TGI [3]: > 500 µM
- TGI [4]: > 500 µM
- TGI [5]: > 500 µM
- TGI [6]: > 500 µM
- TGI [7]: > 500 µM
- TGI [8]: > 500 µM
- TGI [9]: > 500 µM

SMILES: COc1ccc2c(c1)O[C@H]1c3ccc(O)cc3OC[C@@H]21
- TGI [1]: > 100 µM
- TGI [2]: > 100 µM
- TGI [3]: > 100 µM
- TGI [4]: 54.9 µM
- TGI [5]: > 100 µM
- TGI [6]: 72.7 µM
- TGI [8]: > 100 µM
- TGI [10]: > 100 µM
- TGI [9]: 29.3 µM

SMILES: COc1cccc(C2C(C(=O)O)=C(CO)Oc3cc4c(cc32)OCO4)c1 (stereo not drawn)
- TGI [1]: > 100 µM
- TGI [2]: > 100 µM
- TGI [5]: > 100 µM
- TGI [6]: > 100 µM
- TGI [7]: > 100 µM
- TGI [8]: > 100 µM
- TGI [10]: > 100 µM
- TGI [9]: > 100 µM

SMILES: CCSc1nc(N2CCCCC2)c2cn[nH]c2n1
- GI50 [1]: 19.8 µM
- TGI [1]: 59.7 µM
- GI50 [2]: > 100 µM
- TGI [2]: > 100 µM
- GI50 [3]: 88.3 µM
- TGI [3]: > 100 µM
- GI50 [4]: 24.5 µM
- TGI [4]: 92.4 µM
- GI50 [5]: 48.2 µM
- TGI [5]: > 100 µM
- GI50 [6]: 39.8 µM
- TGI [6]: > 100 µM
- GI50 [7]: 57.6 µM
- TGI [7]: > 100 µM
- GI50 [8]: 45.6 µM
- TGI [8]: > 100 µM
- GI50 [10]: 36.8 µM
- TGI [10]: > 100 µM
- GI50 [9]: 18.8 µM
- TGI [9]: 47.1 µM

SMILES: CCOC(=O)C1(C(=O)OCC)CSC1
- TGI [2]: > 100 µM
- TGI [3]: > 100 µM
- TGI [4]: > 100 µM
- TGI [5]: > 100 µM
- TGI [7]: > 100 µM
- TGI [8]: > 100 µM
- TGI [10]: > 100 µM

SMILES: CC(=O)NC(CCCCNC(=O)OC(C)(C)C)C(=O)O (stereo not drawn)
- TGI [1]: > 100 µM
- TGI [2]: > 100 µM
- TGI [3]: > 100 µM
- TGI [5]: > 100 µM
- TGI [7]: > 100 µM
- TGI [8]: > 100 µM
- TGI [10]: > 100 µM
- TGI [9]: > 100 µM

SMILES: COC(=O)C1=COC2OC3/C(=C\c4ccc(O)c(OC)c4)C(=O)OC34C=CC1C24 (stereo not drawn)
- TGI [1]: 41.7 µM
- TGI [2]: 27.7 µM
- TGI [3]: 34.4 µM
- TGI [5]: 32.5 µM
- TGI [6]: 23.7 µM
- TGI [7]: 33.7 µM
- TGI [8]: 35.3 µM
- TGI [10]: 31 µM
- TGI [9]: 36.4 µM

SMILES: O=C(N1CCC(CN=c2cc3n(-c4ccc(Cl)cc4)c4ccccc4nc-3cc2Nc2ccc(Cl)cc2)CC1)N1CC1
- GI50 [1]: 1.38 µM
- TGI [1]: 3.88 µM
- GI50 [2]: 0.512 µM
- TGI [2]: 1.87 µM
- GI50 [4]: 0.369 µM
- TGI [4]: 1.29 µM
- GI50 [6]: 0.632 µM
- TGI [6]: 2.04 µM
- GI50 [7]: 0.519 µM
- TGI [7]: 0.981 µM
- GI50 [9]: 1.92 µM
- TGI [9]: 3.47 µM

SMILES: CCOc1ccc(N=Nc2ccc3oc(=O)c(/C(C)=N\NC(=O)CC(=O)Nc4ccc(Cl)cc4)cc3c2)cc1
- TGI [1]: > 100 µM
- TGI [2]: 26.4 µM
- TGI [3]: 37.9 µM
- TGI [4]: 29.6 µM
- TGI [5]: 34.3 µM
- TGI [6]: 9.32 µM
- TGI [7]: > 100 µM
- TGI [8]: > 100 µM
- TGI [10]: 35.5 µM
- TGI [9]: 28.9 µM
